Measurements: patent US20240124465A1, “MOLECULES AND METHODS RELATED TO TREATMENT OF DISORDERS ASSOCIATED WITH JAK-2 SIGNALING DYSFUNCTION” (ST. JUDE CHILDREN'S RESEARCH HOSPITAL, priority 2020, published 2024)

Assays:
Assay type in all cases: cell-based
MHH-CALL-4 cells = assay: Cytotoxicity assay (resazurin, 72 hours); parameters: AUC: unit not given beside the values; settings: for EC50: MHHCALL4, resazurin; for AUC: area under the dose-response curve
Description: Cytotoxicity assay: MHH-CALL-4 cells were maintained in RPMI1640 medium (Invitrogen) supplemented with 10% FBS (Hyclone), Penicillin/Streptomycin (100 units/mL) and Glutamine (100 μM). 2×10^5 cells were seeded in 100 μl medium/well in 96 well assay plates (Corning 3603). Assays were performed in triplicate; compounds to be screened were added to assay plates from DMSO stock solutions by pin transfer using 50SS pins (V&P Scientific). The assay plates incubated at 37° C. in 5% CO2 for 72 hours. Cells were then incubated for four hours with resazurin (Sigma) solution and read on a Synergy HT plate reader (Biotek, Winooski, VT). High-throughput assay data was analyzed using our in-house Robust Interpretation of Screening Experiments (RISE) application written in Pipeline Pilot (Biovia, v. 17.2.0) and the R program (R Core Team, 2013). All the AUC (area under the dose-response curve) per compound calculated from its dose response curve by RISE protocol. Selected data were plotted and analyzed by GraphPad Prism software v7 using non-linear regression curve fitting.

JAK3 = molecular target: T1, JAK3 (Homo sapiens, UniProt P52333); assay: Western blot assay, JAK3 protein degradation; settings: MHHCALL4; 100 nM, 24 h; MHH-CALL-4 cells; vehicle control = 100%; read-out: Target Protein Degradation (% remaining at 100 nM, 24 h) JAK3
T1 construct: endogenous in cells; host or cells: MHH-CALL-4
T1 sequence (P52333 1-1124): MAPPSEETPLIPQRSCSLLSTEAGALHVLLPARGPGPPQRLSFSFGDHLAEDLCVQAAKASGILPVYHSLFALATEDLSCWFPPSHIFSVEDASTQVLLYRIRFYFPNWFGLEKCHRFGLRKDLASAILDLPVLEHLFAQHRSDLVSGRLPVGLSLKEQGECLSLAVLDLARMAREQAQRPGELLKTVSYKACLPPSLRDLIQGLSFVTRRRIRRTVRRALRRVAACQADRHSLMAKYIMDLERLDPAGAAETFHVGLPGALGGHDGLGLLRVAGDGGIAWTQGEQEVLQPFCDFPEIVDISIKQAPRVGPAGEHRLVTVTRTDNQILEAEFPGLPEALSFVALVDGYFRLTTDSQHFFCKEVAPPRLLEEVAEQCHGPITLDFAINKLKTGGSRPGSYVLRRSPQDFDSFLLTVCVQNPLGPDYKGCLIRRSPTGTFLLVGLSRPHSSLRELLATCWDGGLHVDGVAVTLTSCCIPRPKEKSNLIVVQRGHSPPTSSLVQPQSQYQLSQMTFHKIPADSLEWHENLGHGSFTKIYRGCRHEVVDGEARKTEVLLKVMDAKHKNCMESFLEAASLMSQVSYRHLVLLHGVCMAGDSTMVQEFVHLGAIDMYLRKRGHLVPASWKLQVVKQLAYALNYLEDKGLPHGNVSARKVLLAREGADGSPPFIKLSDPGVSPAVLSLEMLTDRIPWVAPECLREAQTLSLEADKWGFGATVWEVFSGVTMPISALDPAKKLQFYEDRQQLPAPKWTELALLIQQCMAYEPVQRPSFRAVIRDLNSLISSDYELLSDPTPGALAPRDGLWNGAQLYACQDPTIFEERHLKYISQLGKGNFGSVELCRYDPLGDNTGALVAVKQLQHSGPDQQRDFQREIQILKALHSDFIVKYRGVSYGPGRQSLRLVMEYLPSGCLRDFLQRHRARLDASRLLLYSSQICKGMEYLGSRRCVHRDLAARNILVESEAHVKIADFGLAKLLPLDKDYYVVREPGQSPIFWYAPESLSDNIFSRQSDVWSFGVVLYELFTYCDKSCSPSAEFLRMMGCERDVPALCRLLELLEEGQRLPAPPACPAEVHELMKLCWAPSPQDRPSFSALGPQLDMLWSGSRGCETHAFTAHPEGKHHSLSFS
Description: (§1) Western blot assay: MHH-CALL-4 Cells were washed twice with ice-cold PBS and lysed in RIPA lysis buffer (Sigma) freshly supplemented with Halt™ Protease Inhibitor Cocktail (ThermoFisher) for 15 minutes on ice. The cell pellet was removed by centrifugation at 13,000 g at 4° C. for 15 minutes. Protein concentration was measured by BCA assay (Thermo Fisher Scientific). Proteins were denatured in NuPAGE LDS 4× sample buffer supplemented with reducing agents (Invitrogen). Typically, 10-20 μg of total protein was loaded per lane on a 4%-12% NUPAGE Bis-Tris gradient gel (Invitrogen) and analyzed by standard immunoblotting and imaged using Li—COR Odyssey CLx (LI-COR Biotechnology, Lincoln, NE). To access the protein degradation, the signal of target protein was normalized by the signal of ACBT and the signal of vehicle control was set as 100%. Primary antibodies used were: JAK1 (Cell Signaling #3332S), JAK2 (#3230S), JAK3 (#8827S), TYK2 (#9312S), GSPT1 (#14980S), CRBN (#71810S), IKZF1 (Santa Cruz Biotechnology, SC-398265) and ACBT (Santa Cruz Biotechnology, SC-47778).

JAK1 = molecular target: T2, JAK1 (Homo sapiens, UniProt P23458); assay: Western blot assay, JAK1 protein degradation; settings: MHH-CALL-4 cells, vehicle control = 100%
T2 construct: endogenous in cells; host or cells: MHH-CALL-4
Description: as §1

GSPT1 = molecular target: T3, GSPT1 (Homo sapiens, UniProt P15170); assay: Western blot assay, GSPT1 neosubstrate degradation; settings: MHHCALL4; 100 nM, 24 h; MHH-CALL-4 cells; vehicle control = 100%
T3 construct: endogenous in cells; host or cells: MHH-CALL-4
Description: as §1

JAK2 = assay: Western blot assay, JAK2 protein degradation; settings: MHH-CALL-4 cells, vehicle control = 100%
Description: as §1

T2 sequence (P23458 whole entry): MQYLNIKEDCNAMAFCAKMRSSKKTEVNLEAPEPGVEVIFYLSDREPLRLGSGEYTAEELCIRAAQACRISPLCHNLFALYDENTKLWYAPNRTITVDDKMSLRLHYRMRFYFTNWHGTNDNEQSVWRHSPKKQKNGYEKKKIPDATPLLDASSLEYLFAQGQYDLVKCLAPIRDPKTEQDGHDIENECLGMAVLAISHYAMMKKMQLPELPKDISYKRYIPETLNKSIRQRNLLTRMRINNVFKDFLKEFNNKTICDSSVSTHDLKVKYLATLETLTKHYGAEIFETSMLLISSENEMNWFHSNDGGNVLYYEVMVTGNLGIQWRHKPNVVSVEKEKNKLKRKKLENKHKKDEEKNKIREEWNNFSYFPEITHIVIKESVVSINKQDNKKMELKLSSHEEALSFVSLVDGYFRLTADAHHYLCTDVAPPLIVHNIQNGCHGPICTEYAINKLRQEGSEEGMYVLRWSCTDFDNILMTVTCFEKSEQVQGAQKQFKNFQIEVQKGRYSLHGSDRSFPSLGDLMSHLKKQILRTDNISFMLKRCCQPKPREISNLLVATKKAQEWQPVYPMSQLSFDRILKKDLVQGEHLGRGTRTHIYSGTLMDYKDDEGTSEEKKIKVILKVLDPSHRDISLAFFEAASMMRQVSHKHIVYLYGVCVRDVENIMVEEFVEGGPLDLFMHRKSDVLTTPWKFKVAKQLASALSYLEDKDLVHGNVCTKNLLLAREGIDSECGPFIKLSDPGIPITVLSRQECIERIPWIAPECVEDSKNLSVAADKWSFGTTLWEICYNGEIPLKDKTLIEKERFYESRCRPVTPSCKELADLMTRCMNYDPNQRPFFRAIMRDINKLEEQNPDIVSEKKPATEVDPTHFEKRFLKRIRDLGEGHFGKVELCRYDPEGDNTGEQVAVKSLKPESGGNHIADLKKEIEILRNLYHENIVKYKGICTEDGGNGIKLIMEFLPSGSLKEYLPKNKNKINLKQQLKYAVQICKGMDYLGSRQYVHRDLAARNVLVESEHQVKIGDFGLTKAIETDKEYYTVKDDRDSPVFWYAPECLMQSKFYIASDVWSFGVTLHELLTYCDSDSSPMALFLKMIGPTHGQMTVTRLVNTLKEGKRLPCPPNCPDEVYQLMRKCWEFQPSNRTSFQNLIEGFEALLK
T3 sequence (P15170 whole entry): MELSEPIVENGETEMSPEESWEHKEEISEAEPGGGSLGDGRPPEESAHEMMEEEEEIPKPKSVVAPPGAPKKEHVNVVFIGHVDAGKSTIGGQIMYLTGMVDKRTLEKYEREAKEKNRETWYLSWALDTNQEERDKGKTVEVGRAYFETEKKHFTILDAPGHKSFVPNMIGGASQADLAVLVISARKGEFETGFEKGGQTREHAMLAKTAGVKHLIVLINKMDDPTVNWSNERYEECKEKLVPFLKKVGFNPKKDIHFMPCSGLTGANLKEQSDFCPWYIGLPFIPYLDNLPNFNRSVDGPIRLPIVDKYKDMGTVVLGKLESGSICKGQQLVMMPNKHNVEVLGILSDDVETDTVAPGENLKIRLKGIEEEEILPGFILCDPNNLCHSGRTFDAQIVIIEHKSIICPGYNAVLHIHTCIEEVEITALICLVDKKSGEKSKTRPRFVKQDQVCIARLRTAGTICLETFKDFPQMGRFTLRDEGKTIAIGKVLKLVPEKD

Compound `CCS(=O)(=O)N1CC(CC#N)(n2cc(-c3nc(Nc4ccc(C(=O)NCCCN5CC6CCC(C5)N6c5ccc(C6CCC(=O)NC6=O)cc5)cc4)nc4[nH]ccc34)cn2)C1` (stereo not drawn) [Compound 55, 4-((4-(1-(3-(cyanomethyl)-1-(ethylsulfonyl)azetidin-3-yl)-1H-pyrazol-4-yl)-7H-pyrrolo[2,3-d]pyrimidin-2-yl)amino)-N-(3-(8-(4-(2,6-dioxopiperidin-3-yl)phenyl)-3,8-diazabicyclo[3.2.1]octan-3-yl)propyl)benzamide] has an EC50 (MHH-CALL-4 cells) of 596 nM, an AUC (MHH-CALL-4 cells) of 149 and a remaining activity at 0.1 µM (JAK3) of 44%. For the same compound, the “Target Protein Degradation (% remaining at 100 nM, 24 h) JAK1” value (JAK1) was 113 % remaining, the remaining activity at 0.1 µM (GSPT1) was 75% and the “Target Protein Degradation (% remaining at 100 nM, 24 h) JAK2” value (JAK2) was 19 % remaining.
With `CCS(=O)(=O)N1CC(CC#N)(n2cc(-c3nc(Nc4ccc(C(=O)NCCCCN5CCN(c6ccc7c(c6)C(=O)N(C6CCC(=O)NC6=O)C7=O)CC5)cc4)nc4[nH]ccc34)cn2)C1` (stereo not drawn) [Compound 20] the EC50 (MHH-CALL-4 cells) was 13.6 nM, the AUC (MHH-CALL-4 cells) was 123 and the remaining activity at 0.1 µM (JAK3) was 102%. The “Target Protein Degradation (% remaining at 100 nM, 24 h) JAK1” value (JAK1) was 138 % remaining, the remaining activity at 0.1 µM (GSPT1) was 128% and the “Target Protein Degradation (% remaining at 100 nM, 24 h) JAK2” value (JAK2) was 40 % remaining.
`CCS(=O)(=O)N1CC(CC#N)(n2cc(-c3nc(Nc4ccc(C(=O)NCCCCCCNc5cccc(C6CCC(=O)NC6=O)c5)cc4)nc4[nH]ccc34)cn2)C1` (stereo not drawn) [Compound 3] showed an EC50 (MHH-CALL-4 cells) of 1.7 nM, an AUC (MHH-CALL-4 cells) of 248 and a remaining activity at 0.1 µM (JAK3) of 79%. For the same compound, the “Target Protein Degradation (% remaining at 100 nM, 24 h) JAK1” value (JAK1) was 94 % remaining, the remaining activity at 0.1 µM (GSPT1) was 84% and the “Target Protein Degradation (% remaining at 100 nM, 24 h) JAK2” value (JAK2) was 56 % remaining.
Work on `CCS(=O)(=O)C1CC(CC#N)(n2cc(-c3nc(Nc4ccc(C(=O)NC5CCN(c6ccc7c(c6)C(=O)N(C6CCC(=O)NC6=O)C7=O)CC5)cc4)nc4[nH]ccc34)cn2)C1` (stereo not drawn) [Compound 29] yielded an EC50 (MHH-CALL-4 cells) of 4.3 nM, an AUC (MHH-CALL-4 cells) of 262 and a remaining activity at 0.1 µM (JAK3) of 62%. For the same compound, the “Target Protein Degradation (% remaining at 100 nM, 24 h) JAK1” value (JAK1) was 64 % remaining, the remaining activity at 0.1 µM (GSPT1) was 51% and the “Target Protein Degradation (% remaining at 100 nM, 24 h) JAK2” value (JAK2) was 14 % remaining.
For `N#CC[C@H](C1CCCC1)n1cc(-c2nc(Nc3ccc(C(=O)NCCCCOc4ccc(C5CCC(=O)NC5=O)cc4)cc3)nc3[nH]ccc23)cn1` (stereo partly drawn) [Compound 36], the EC50 (MHH-CALL-4 cells) was 5.4 nM, the AUC (MHH-CALL-4 cells) was 129 and the remaining activity at 0.1 µM (JAK3) was 63%. The “Target Protein Degradation (% remaining at 100 nM, 24 h) JAK1” value (JAK1) was 118 % remaining, the remaining activity at 0.1 µM (GSPT1) was 94% and the “Target Protein Degradation (% remaining at 100 nM, 24 h) JAK2” value (JAK2) was 32 % remaining.
`CCCn1cc(-c2nc(Nc3ccc(C(=O)NCCN4CCN(c5ccc6c(c5)C(=O)N(C5CCC(=O)NC5=O)C6=O)CC4)cc3)nc3[nH]ccc23)cn1` (stereo not drawn) [Compound 39, N-(2-(4-(2-(2,6-dioxopiperidin-3-yl)-1,3-dioxoisoindolin-5-yl)piperazin-1-yl)ethyl)-4-((4-(1-propyl-1H-pyrazol-4-yl)-7H-pyrrolo[2,3-d]pyrimidin-2-yl)amino)benzamide] was tested, and the EC50 (MHH-CALL-4 cells) was 33.1 nM, the AUC (MHH-CALL-4 cells) was 221 and the remaining activity at 0.1 µM (JAK3) was 53%. The “Target Protein Degradation (% remaining at 100 nM, 24 h) JAK1” value (JAK1) was 126 % remaining, the remaining activity at 0.1 µM (GSPT1) was 84% and the “Target Protein Degradation (% remaining at 100 nM, 24 h) JAK2” value (JAK2) was 61 % remaining.
Compound `CCS(=O)(=O)N1CC(CC#N)(n2cc(-c3nc(Nc4ccc(C(=O)NCCCCCCCNc5cccc(C6CCC(=O)NC6=O)c5)cc4)nc4[nH]ccc34)cn2)C1` (stereo not drawn) [Compound 34] has an EC50 (MHH-CALL-4 cells) of 31 nM, an AUC (MHH-CALL-4 cells) of 210 and a remaining activity at 0.1 µM (JAK3) of 69%. The “Target Protein Degradation (% remaining at 100 nM, 24 h) JAK1” value (JAK1) was 90 % remaining, the remaining activity at 0.1 µM (GSPT1) was 74% and the “Target Protein Degradation (% remaining at 100 nM, 24 h) JAK2” value (JAK2) was 71 % remaining.
